Results reported in patent publication US9056876B2, “Substituted 1H-pyrazolo[3′,4′,4,5]thieno[2,3-b]pyridin-3-amine analogs as positive allosteric modulators of the muscarinic acetylcholine receptor M4” (VANDERBILT UNIVERSITY, priority 2011, dated 2015).

Target: T1, mAChR M4 (UniProt P08173)
T1 construct: hM1 and hM4 cDNAs were purchased from Missouri S&T cDNA Resource
T1 sequence (P08173 1-479): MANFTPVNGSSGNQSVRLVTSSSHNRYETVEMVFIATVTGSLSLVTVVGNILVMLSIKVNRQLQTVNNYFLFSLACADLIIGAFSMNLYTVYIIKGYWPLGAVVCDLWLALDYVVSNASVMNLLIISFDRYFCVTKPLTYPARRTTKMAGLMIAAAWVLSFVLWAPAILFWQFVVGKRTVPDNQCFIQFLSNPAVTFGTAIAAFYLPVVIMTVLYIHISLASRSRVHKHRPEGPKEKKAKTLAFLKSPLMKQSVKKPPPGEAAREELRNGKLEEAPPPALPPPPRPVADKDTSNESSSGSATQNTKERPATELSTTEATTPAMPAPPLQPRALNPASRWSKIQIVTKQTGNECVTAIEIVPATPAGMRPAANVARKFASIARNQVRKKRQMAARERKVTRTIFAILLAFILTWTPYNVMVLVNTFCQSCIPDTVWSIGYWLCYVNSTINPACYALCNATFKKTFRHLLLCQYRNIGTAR
Test: mAChR M4 cell-based functional assay (calcium mobilization, Fluo-4, FDSS)
Conditions: for Emax (%)*: % ACh maximum at 30 μM; for pEC50: positive allosteric modulator activity, EC20 acetylcholine response; for pEC50 / EC50: CHO-K1 cells; for EC50: positive allosteric modulator activity: concentration-dependent increase in the EC20 acetylcholine response, >10 μM estimated for low potency (no plateau)
Summary of the method: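 Compound responses (11-point, 1:3 series) were followed as calcium fluorescence ratio on FDSS in Gqi5-coupled M4 CHO-K1 cells (human or rat) loaded with Fluo-4. Acetylcholine followed at EC20 (144 s) then EC80 (230 s). EC50/Emax from four-parameter logistic fits of direct, EC20-potentiating or EC80-inhibiting effects.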

Emax (%)*	pEC50	EC50	SMILES
65%	5.92	1.2 µM	COCCn1nc(NCc2ccc(S(C)(=O)=O)cc2)c2sc3nc(C)cc(C)c3c21 [Compound 119, 1-(2-methoxyethyl)-6,8-dimethyl-N-(4-(methylsulfonyl)benzyl)-1H-pyrazolo[3′,4′:4,5]thieno[2,3-b]pyridin-3-amine]
59%	<5.00	> 10 µM	CCCn1nc(NCc2ccc(S(C)(=O)=O)cc2)c2sc3nc(C)cc(C)c3c21 [Compound 120, 6,8-dimethyl-N-(4-(methylsulfonyl)benzyl)-1-propyl-1H-pyrazolo[3′,4′:4,5]thieno[2,3-b]pyridin-3-amine]
41%	6.00	0.99 µM	CC(=O)N1CCC(CNc2nn(C)c3c2sc2nc(C)cc(C)c23)CC1 [Compound 121, 1-(4-(((1,6,8-trimethyl-1H-pyrazolo[3′,4′:4,5]thieno[2,3-b]pyridin-3-yl)amino)methyl)piperidin-1-yl)ethanone]
27%	<5.00	> 10 µM	Cc1cc(C)c2c(n1)sc1c(NCC3CCN(C(=O)OC(C)(C)C)CC3)nn(C)c12 [Compound 122, tert-butyl 4-(((1,6,8-trimethyl-1H-pyrazolo[3′,4′:4,5]thieno[2,3-b]pyridin-3-yl)amino)methyl)piperidine-1-carboxylate]
30%	<5.00	> 10 µM	Cc1cc(C)c2c(n1)sc1c(NCC3CCNCC3)nn(C)c12 [Compound 123, 1,6,8-trimethyl-N-(piperidin-4-ylmethyl)-1H-pyrazolo[3′,4′:4,5]thieno[2,3-b]pyridin-3-amine]
–	<5.00	> 10 µM	Cc1cc(C)c2c(n1)sc1c(NCCC(C)(C)C)n[nH]c12 [Compound 124, N-(3,3-dimethylbutyl)-6,8-dimethyl-1H-pyrazolo[3′,4′:4,5]thieno[2,3-b]pyridin-3-amine]
–	<5.00	> 10 µM	Cc1cc(C)c2c(n1)sc1c(N)nn(C(=O)OC(C)(C)C)c12 [Compound 125, tert-butyl 3-amino-6,8-dimethyl-1H-pyrazolo[3′,4′:4,5]thieno[2,3-b]pyridine-1-carboxylate]
–	<5.00	> 10 µM	CC(=O)Nc1n[nH]c2c1sc1nc(C)cc(C)c12 [Compound 126, N-(6,8-dimethyl-1H-pyrazolo[3′,4′:4,5]thieno[2,3-b]pyridin-3-yl)acetamide]
–	<5.00	> 10 µM	COc1cccc(C(=O)Nc2n[nH]c3c2sc2nc(C)cc(C)c23)c1 [Compound 127, N-(6,8-dimethyl-1H-pyrazolo[3′,4′:4,5]thieno[2,3-b]pyridin-3-yl)-3-methoxybenzamide]
–	<5.00	> 10 µM	Cc1cc(C)c2c(n1)sc1c(NC(=O)c3ccc(F)cc3)n[nH]c12 [Compound 128, N-(6,8-dimethyl-1H-pyrazolo[3′,4′:4,5]thieno[2,3-b]pyridin-3-yl)-4-fluorobenzamide]
–	<5.00	> 10 µM	CCCCC(=O)Nc1n[nH]c2c1sc1nc(C)cc(C)c12 [Compound 129, N-(6,8-dimethyl-1H-pyrazolo[3′,4′:4,5]thieno[2,3-b]pyridin-3-yl)pentanamide]
–	<5.00	> 10 µM	Cc1cc(C)c2c(n1)sc1c(NC(=O)c3ccccc3)n[nH]c12 [Compound 130, N-(6,8-dimethyl-1H-pyrazolo[3′,4′:4,5]thieno[2,3-b]pyridin-3-yl)benzamide]
–	<5.00	> 10 µM	Cc1cc(C)c2c(n1)sc1c(NC3CCN(C(C)C)CC3)n[nH]c12 [Compound 131, N-(1-isopropylpiperidin-4-yl)-6,8-dimethyl-1H-pyrazolo[3′,4′:4,5]thieno[2,3-b]pyridin-3-amine]
–	<5.00	> 10 µM	Cc1cc(C)c2c(n1)sc1c(NC3CCCCC3)n[nH]c12 [Compound 132, N-cyclohexyl-6,8-dimethyl-1H-pyrazolo[3′,4′:4,5]thieno[2,3-b]pyridin-3-amine]
–	<5.00	> 10 µM	Cc1cc(C)c2c(n1)sc1c(NC3CCCCCC3)n[nH]c12 [Compound 133, N-cycloheptyl-6,8-dimethyl-1H-pyrazolo[3′,4′:4,5]thieno[2,3-b]pyridin-3-amine]
–	<5.00	> 10 µM	Cc1cc(C)c2c(n1)sc1c(NC3CCN(C)CC3)n[nH]c12 [Compound 134, 6,8-dimethyl-N-(1-methylpiperidin-4-yl)-1H-pyrazolo[3′,4′:4,5]thieno[2,3-b]pyridin-3-amine]
–	<5.00	> 10 µM	Cc1cc(C)c2c(n1)sc1c(NC3CCCN(C(=O)OC(C)(C)C)C3)n[nH]c12 (stereo not drawn) [Compound 135, tert-butyl 3-((6,8-dimethyl-1H-pyrazolo[3′,4′:4,5]thieno[2,3-b]pyridin-3-yl)amino)piperidine-1-carboxylate]
–	<5.00	> 10 µM	Cc1cc(C)c2c(n1)sc1c(NC3CCCNC3)n[nH]c12 (stereo not drawn) [Compound 136, 6,8-dimethyl-N-(piperidin-3-yl)-1H-pyrazolo[3′,4′:4,5]thieno[2,3-b]pyridin-3-amine]
–	<5.00	> 10 µM	Cc1cc(C)c2c(n1)sc1c(NC3CCC(C(F)(F)F)CC3)n[nH]c12 (stereo not drawn) [Compound 137, 6,8-dimethyl-N-(4-(trifluoromethyl)cyclohexyl)-1H-pyrazolo[3′,4′:4,5]thieno[2,3-b]pyridin-3-amine]
–	<5.00	> 10 µM	Cc1cc(C)c2c(n1)sc1c(NC3CCC(N)CC3)n[nH]c12 (stereo not drawn) [Compound 138, N1-(6,8-dimethyl-1H-pyrazolo[3′,4′:4,5]thieno[2,3-b]pyridin-3-yl)cyclohexane-1,4-diamine]
–	<5.00	> 10 µM	Cc1cc(C)c2c(n1)sc1c(NC3CCC(NC(=O)OC(C)(C)C)CC3)n[nH]c12 (stereo not drawn) [Compound 139, tert-butyl (4-((6,8-dimethyl-1H-pyrazolo[3′,4′:4,5]thieno[2,3-b]pyridin-3-yl)amino)cyclohexyl)carbamate]
–	<5.00	> 10 µM	Cc1nc2sc3c(NCCC(C)C)n[nH]c3c2c(C)c1Cl [Compound 140, 7-chloro-N-isopentyl-6,8-dimethyl-1H-pyrazolo[3′,4′:4,5]thieno[2,3-b]pyridin-3-amine]
–	<5.00	> 10 µM	Cc1nc2sc3c(N)n[nH]c3c2c(C)c1Cl [Compound 141, 7-chloro-6,8-dimethyl-1H-pyrazolo[3′,4′:4,5]thieno[2,3-b]pyridin-3-amine]
–	<5.00	> 10 µM	Cc1nc2sc3c(NCC4CCCCC4)n[nH]c3c2c(C)c1Cl [Compound 142, 7-chloro-N-(cyclohexylmethyl)-6,8-dimethyl-1H-pyrazolo[3′,4′:4,5]thieno[2,3-b]pyridin-3-amine]
–	<5.00	> 10 µM	COc1ccc(CNc2n[nH]c3c2sc2nc(C)c(Cl)c(C)c23)cc1 [Compound 143, 7-chloro-N-(4-methoxybenzyl)-6,8-dimethyl-1H-pyrazolo[3′,4′:4,5]thieno[2,3-b]pyridin-3-amine]
–	<5.00	> 10 µM	Cc1cc(C)cc(CNc2n[nH]c3c2sc2nc(C)c(Cl)c(C)c23)c1 [Compound 144, 7-chloro-N-(3,5-dimethylbenzyl)-6,8-dimethyl-1H-pyrazolo[3′,4′:4,5]thieno[2,3-b]pyridin-3-amine]
